How the values were obtained:
KM12 = assay: In vitro cytotoxicity (NCI protocol, SRB), KM12; settings: Homo sapiens, KM12, 48 h
NCI-H460 = assay: In vitro cytotoxicity (NCI protocol, SRB), NCI-H460; settings: Homo sapiens, NCI-H460, 48 h
HCT-15 = assay: In vitro cytotoxicity (NCI protocol, SRB), HCT-15; settings: Homo sapiens, HCT-15, 48 h
HOP-62 = assay: In vitro cytotoxicity (NCI protocol, SRB), HOP-62; settings: Homo sapiens, HOP-62, 48 h
MCF7 = assay: In vitro cytotoxicity (NCI protocol, SRB), MCF7; settings: Homo sapiens, MCF7, 48 h
SK-MEL-2 = assay: In vitro cytotoxicity (NCI protocol, SRB), SK-MEL-2; settings: Homo sapiens, SK-MEL-2, 48 h
RXF 393 = assay: In vitro cytotoxicity (NCI protocol, SRB), RXF 393; settings: Homo sapiens, RXF 393, 48 h
NCI-H226 = assay: In vitro cytotoxicity (NCI protocol, SRB), NCI-H226; settings: Homo sapiens, NCI-H226, 48 h
RPMI-8226 = assay: In vitro cytotoxicity (NCI protocol, SRB), RPMI-8226; settings: Homo sapiens, RPMI-8226, 48 h
SR = assay: In vitro cytotoxicity (NCI protocol, SRB), SR; settings: Homo sapiens, 48 h
OVCAR-8 = assay: In vitro cytotoxicity (NCI protocol, SRB), OVCAR-8; settings: Homo sapiens, OVCAR-8, 48 h
MDA-MB-435 [1] = assay: In vitro cytotoxicity (NCI protocol, SRB), MDA-MB-435 (melanoma panel); settings: Melanoma MDA-MB-435, 48 h exposure
NCIH322M = assay: In vitro cytotoxicity (NCI protocol, SRB), NCIH322M; settings: Homo sapiens, NCI-H322M, 48 h
OVCAR-3 = assay: In vitro cytotoxicity (NCI protocol, SRB), OVCAR-3; settings: Homo sapiens, OVCAR-3, 48 h
M14 = assay: In vitro cytotoxicity (NCI protocol, SRB), M14; settings: Homo sapiens, M14, 48 h
HS 578T = assay: In vitro cytotoxicity (NCI protocol, SRB), HS 578T; settings: Homo sapiens, 48 h
MALME-3M = assay: In vitro cytotoxicity (NCI protocol, SRB), MALME-3M; settings: Homo sapiens, 48 h
MDA-MB-435 [2] = assay: In vitro cytotoxicity (NCI protocol, SRB), MDA-MB-435 (breast panel line); settings: Homo sapiens, MDA-MB-435, 48 h
HCC-2998 = assay: In vitro cytotoxicity (NCI protocol, SRB), HCC-2998; settings: Homo sapiens, HCC 2998, 48 h
IGROV1 = assay: In vitro cytotoxicity (NCI protocol, SRB), IGROV1; settings: Homo sapiens, IGROV-1, 48 h
SF-295 = assay: In vitro cytotoxicity (NCI protocol, SRB), SF-295; settings: Homo sapiens, SF-295, 48 h
SF-268 = assay: In vitro cytotoxicity (NCI protocol, SRB), SF-268; settings: Homo sapiens, SF-268, 48 h
SF-539 = assay: In vitro cytotoxicity (NCI protocol, SRB), SF-539; settings: Homo sapiens, 48 h
SNB -19 = assay: In vitro cytotoxicity (NCI protocol, SRB), SNB -19; settings: Homo sapiens, SNB-19, 48 h
SW-620 = assay: In vitro cytotoxicity (NCI protocol, SRB), SW-620; settings: Homo sapiens, SW-620, 48 h
UACC-257 = assay: In vitro cytotoxicity (NCI protocol, SRB), UACC-257; settings: Homo sapiens, UACC-257, 48 h
TK-10 = assay: In vitro cytotoxicity (NCI protocol, SRB), TK-10; settings: Homo sapiens, TK-10, 48 h
SK-OV-3 = assay: In vitro cytotoxicity (NCI protocol, SRB), SK-OV-3; settings: Homo sapiens, SK-OV-3, 48 h
CAKI-1 = assay: In vitro cytotoxicity (NCI protocol, SRB), CAKI-1; settings: Homo sapiens, CAKI-1, 48 h
UACC-62 = assay: In vitro cytotoxicity (NCI protocol, SRB), UACC-62; settings: Homo sapiens, UACC-62, 48 h
HOP92 = assay: In vitro cytotoxicity (NCI protocol, SRB), HOP92; settings: Homo sapiens, HOP-92, 48 h
SK-MEL-5 = assay: In vitro cytotoxicity (NCI protocol, SRB), SK-MEL-5; settings: Homo sapiens, SK-MEL-5, 48 h

Structure (SMILES) | GI50 (KM12) [nM] | GI50 (NCI-H460) [nM] | GI50 (HCT-15) [nM] | GI50 (HOP-62) [nM] | GI50 (MCF7) [nM] | GI50 (SK-MEL-2) [nM] | GI50 (RXF 393) [nM] | GI50 (NCI-H226) [µM] | GI50 (RPMI-8226) [nM] | GI50 (SR) [nM] | GI50 (OVCAR-8) [nM] | GI50 (MDA-MB-435 [1]; Homo sapiens, MDA-MB-435, 48 h) [nM] | GI50 (NCIH322M) [nM] | GI50 (OVCAR-3) [nM] | GI50 (M14) [nM] | GI50 (HS 578T) [nM] | GI50 (MDA-MB-435 [2]) [nM] | GI50 (HCC-2998) [nM] | GI50 (IGROV1) [nM] | GI50 (SF-295) [nM] | other results
COc1ccc(S(=O)(=O)Nc2cc(/C=C\c3cc(OC)c(OC)c(OC)c3)ccc2OC)cc1 [12a, (Z)-4-methoxy-N-(2-methoxy-5-(3,4,5-trimethoxystyryl)phenyl)benzenesulfonamide] | 73.8 | 178 | 62.3 | 41 | 42.6 | 80.3 | 81.4 | 12.8 | 319 | 70.9 | 276 | 27.4 | 430 | 52.8 | 103 | 226 | 168 | 442 | 166 | 39.3 | GI50 (MALME-3M): 52.7 nM; GI50 (SF-268): 401 nM; GI50 (SF-539): 126 nM; GI50 (SNB -19): 352 nM; GI50 (SW-620): 78.5 nM; GI50 (UACC-257): 2.98 µM; GI50 (TK-10): 76.8 nM; GI50 (SK-OV-3): 96.3 nM; GI50 (CAKI-1): 51.5 nM; GI50 (UACC-62): 49 nM; GI50 (HOP92): 97.4 nM; GI50 (SK-MEL-5): 48.8 nM
COc1cc(/C=C\c2cc(OC)c(OC)c(OC)c2)cc(NS(=O)(=O)c2ccc(Cl)cc2)c1OC [13c, (Z)-4-chloro-N-(2,3-dimethoxy-5-(3,4,5-trimethoxystyryl)phenyl)benzenesulfonamide] | 572 | 364 | 399 | 414 | 375 | 613 | 272 | 13.5 | 387 | 406 | 600 | 188 | 759 | 364 | 391 | 351 | 271 | 1980 | 914 | 319 | GI50 (SF-268): 1100 nM; GI50 (SF-539): 303 nM; GI50 (SNB -19): 745 nM; GI50 (SW-620): 343 nM; GI50 (UACC-257): 12.5 µM; GI50 (TK-10): 779 nM; GI50 (SK-OV-3): 449 nM; GI50 (CAKI-1): 374 nM; GI50 (UACC-62): 435 nM; GI50 (HOP92): 720 nM; GI50 (SK-MEL-5): 297 nM
COc1ccc(S(=O)(=O)Nc2c(/C=C\c3cc(OC)c(OC)c(OC)c3)ccc(OC)c2O)cc1 [17a, (Z)—N-(2-hydroxy-3-methoxy-6-(3,4,5-trimethoxystyryl)phenyl)-4-methoxybenzenesulfonamide] | 35.5 | 36.8 | 36.6 | 39.7 | 38 | 43.7 | 31.8 | 4.13 | 46.9 | 31.9 | 46.6 | 19 | 63.3 | 33.9 | 31.3 | 47 | 43.9 | 31.6 | 54 | 33.9 | GI50 (MDA-MB-435 [1]): 19.2 nM; GI50 (MALME-3M): 1510 nM; GI50 (SF-268): 83.9 nM; GI50 (SF-539): 29.3 nM; GI50 (SNB -19): 60.2 nM; GI50 (SW-620): 40.8 nM; GI50 (TK-10): 73.2 nM; GI50 (SK-OV-3): 29.6 nM; GI50 (CAKI-1): 51.6 nM; GI50 (UACC-62): 38.9 nM; GI50 (HOP92): 1600 nM; GI50 (SK-MEL-5): 36.3 nM
COc1ccc(/C=C\c2cc(OC)c(OC)c(OC)c2)c(NS(=O)(=O)c2ccc(Cl)cc2)c1O [17c, (Z)-4-chloro-N-(2-hydroxy-3-methoxy-6-(3,4,5-trimethoxystyryl)phenyl)benzenesulfonamide] | 127 | 316 | 53 | 671 | 38.4 | 65.9 | 35.5 | 24.9 | 207 | 30.6 | 294 | 22.2 | 485 | 60.2 | 91.3 | 292 | 36.7 | 429 | 379 | 256 | GI50 (SF-268): 380 nM; GI50 (SF-539): 37 nM; GI50 (SNB -19): 807 nM; GI50 (SW-620): 69.4 nM; GI50 (UACC-257): 14.2 µM; GI50 (TK-10): 998 nM; GI50 (SK-OV-3): 229 nM; GI50 (CAKI-1): 54.2 nM; GI50 (UACC-62): 63.5 nM; GI50 (HOP92): 2360 nM; GI50 (SK-MEL-5): 51 nM
